Publication PMC8887130 (Genes & Development, 2022)

Experiments:
CF II (hClp1-hPcf11) [1] = target: CF II (hClp1-hPcf11) (Homo sapiens, UniProt Q92989, E22A); assay: biochemical
CF II (hClp1-hPcf11) [2] = target: CF II (hClp1-hPcf11) (Homo sapiens, UniProt Q92989, E22Q); assay: biochemical
CF II (hClp1-hPcf11) [3] = target: CF II (hClp1-hPcf11) (Homo sapiens, UniProt Q92989, R288A/R293K); assay: biochemical
CF II (hClp1-hPcf11) [4] = target: T1, CF II (hClp1-hPcf11) (Homo sapiens, UniProt Q92989); assay: biochemical
CF II (hClp1-hPcf11) [5] = target: T1, CF II (hClp1-hPcf11); assay: […]'-dATP titration in reconstituted pre-mRNA cleavage, half-maximal activation; type: biochemical

T1 sequence (Q92989 whole entry): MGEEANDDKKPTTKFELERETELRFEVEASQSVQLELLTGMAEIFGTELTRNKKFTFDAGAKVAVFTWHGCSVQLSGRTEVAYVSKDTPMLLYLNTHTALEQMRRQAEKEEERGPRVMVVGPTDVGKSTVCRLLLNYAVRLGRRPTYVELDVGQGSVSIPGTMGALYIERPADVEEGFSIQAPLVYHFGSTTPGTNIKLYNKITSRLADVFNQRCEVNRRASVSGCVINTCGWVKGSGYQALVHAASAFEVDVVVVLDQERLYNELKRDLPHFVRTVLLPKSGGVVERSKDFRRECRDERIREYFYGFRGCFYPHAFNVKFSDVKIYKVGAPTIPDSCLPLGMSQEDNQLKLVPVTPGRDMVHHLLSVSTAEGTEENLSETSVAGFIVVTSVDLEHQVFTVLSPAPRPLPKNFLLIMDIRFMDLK
T1 sequence (O94913 2-1555 partner): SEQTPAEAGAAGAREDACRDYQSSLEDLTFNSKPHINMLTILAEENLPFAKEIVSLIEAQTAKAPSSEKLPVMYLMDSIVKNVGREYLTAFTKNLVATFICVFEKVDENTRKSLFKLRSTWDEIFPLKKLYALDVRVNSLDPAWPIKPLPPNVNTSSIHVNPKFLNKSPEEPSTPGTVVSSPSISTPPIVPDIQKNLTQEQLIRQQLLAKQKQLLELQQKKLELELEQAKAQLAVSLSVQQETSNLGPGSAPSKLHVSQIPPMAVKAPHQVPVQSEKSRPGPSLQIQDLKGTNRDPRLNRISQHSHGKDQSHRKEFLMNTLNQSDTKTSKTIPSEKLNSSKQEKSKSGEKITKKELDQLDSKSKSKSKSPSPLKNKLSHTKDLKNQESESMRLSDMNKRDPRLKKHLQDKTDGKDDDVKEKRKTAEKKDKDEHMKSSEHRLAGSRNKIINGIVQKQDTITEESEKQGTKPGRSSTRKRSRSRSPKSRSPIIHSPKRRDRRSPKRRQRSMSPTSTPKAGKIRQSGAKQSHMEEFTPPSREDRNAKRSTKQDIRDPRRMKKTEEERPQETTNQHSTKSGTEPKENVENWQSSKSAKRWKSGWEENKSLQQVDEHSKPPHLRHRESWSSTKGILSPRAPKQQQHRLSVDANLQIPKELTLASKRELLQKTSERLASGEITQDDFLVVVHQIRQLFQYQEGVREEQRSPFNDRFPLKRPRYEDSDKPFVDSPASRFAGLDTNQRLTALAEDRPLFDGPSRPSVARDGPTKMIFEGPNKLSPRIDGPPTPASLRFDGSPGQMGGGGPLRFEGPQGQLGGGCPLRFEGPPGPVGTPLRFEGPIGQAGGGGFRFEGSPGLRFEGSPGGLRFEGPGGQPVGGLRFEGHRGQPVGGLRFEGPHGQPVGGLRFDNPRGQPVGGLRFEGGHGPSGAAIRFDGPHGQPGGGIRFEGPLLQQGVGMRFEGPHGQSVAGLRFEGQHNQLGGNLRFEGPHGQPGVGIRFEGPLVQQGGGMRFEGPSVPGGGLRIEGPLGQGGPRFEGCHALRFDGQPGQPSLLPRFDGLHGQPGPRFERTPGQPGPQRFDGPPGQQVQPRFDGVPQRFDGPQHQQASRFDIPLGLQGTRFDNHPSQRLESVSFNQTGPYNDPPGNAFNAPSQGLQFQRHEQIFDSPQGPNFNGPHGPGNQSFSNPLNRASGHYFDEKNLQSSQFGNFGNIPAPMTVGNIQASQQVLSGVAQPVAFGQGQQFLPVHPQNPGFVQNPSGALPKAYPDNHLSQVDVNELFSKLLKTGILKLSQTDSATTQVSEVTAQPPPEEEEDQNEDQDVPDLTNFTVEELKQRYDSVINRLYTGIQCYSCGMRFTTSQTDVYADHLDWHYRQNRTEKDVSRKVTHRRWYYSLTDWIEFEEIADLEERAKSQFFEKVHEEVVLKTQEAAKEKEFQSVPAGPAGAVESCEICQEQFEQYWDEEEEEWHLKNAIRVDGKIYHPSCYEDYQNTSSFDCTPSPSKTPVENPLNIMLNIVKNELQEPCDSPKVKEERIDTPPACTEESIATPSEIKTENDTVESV
Sequence of CF II (hClp1-hPcf11) (Homo sapiens, UniProt Q92989, E22Q) (Q92989 whole entry E22Q): as the sequence (Q92989 whole entry) above, with E22Q counted along it
Sequence of CF II (hClp1-hPcf11) (Homo sapiens, UniProt Q92989, E22Q) (O94913 2-1555 partner): as the sequence (O94913 2-1555 partner) above
Sequence of CF II (hClp1-hPcf11) (Homo sapiens, UniProt Q92989, R288A/R293K) (Q92989 whole entry R288A/R293K): as the sequence (Q92989 whole entry) above, with R288A, R293K counted along it
Sequence of CF II (hClp1-hPcf11) (Homo sapiens, UniProt Q92989, R288A/R293K) (O94913 2-1555 partner): as the sequence (O94913 2-1555 partner) above
Sequence of CF II (hClp1-hPcf11) (Homo sapiens, UniProt Q92989, E22A) (Q92989 whole entry E22A): as the sequence (Q92989 whole entry) above, with E22A counted along it
Sequence of CF II (hClp1-hPcf11) (Homo sapiens, UniProt Q92989, E22A) (O94913 2-1555 partner): as the sequence (O94913 2-1555 partner) above

| EC50 (CF II (hClp1-hPcf11) [1]) [µM] | EC50 (CF II (hClp1-hPcf11) [2]) [µM] | EC50 (CF II (hClp1-hPcf11) [3]) [µM] | EC50 (CF II (hClp1-hPcf11) [4]) [µM] | EC50 (CF II (hClp1-hPcf11) [5]) [µM] | SMILES |
| --- | --- | --- | --- | --- | --- |
| 10.9 ± 2.7 | 95.9 ± 19.8 | 5.7 ± 3.4 | 0.5 ± 0.1 |  | Nc1ncnc2c1ncn2[C@@H]1O[C@H](COP(=O)(O)OP(=O)(O)OP(=O)(O)O)[C@@H](O)[C@H]1O [ATP] |
|  |  |  |  | 46.3 ± 7.4 | Nc1ncnc2c1ncn2[C@@H]1O[C@H](COP(=O)(O)OP(=O)(O)OP(=O)(O)O)C[C@H]1O [3'-dATP] |
